From ChEMBL document CHEMBL2074287, “Modulation of digoxin transport across Caco-2 cell monolayers by citrus fruit juices: lime, lemon, grapefruit, and pummelo” (Pharm Res, 2003) come the findings set out here.

For this data set, the target named is ATP-dependent translocase ABCB1 (Homo sapiens, UniProt P08183). Briefly: TP_TRANSPORTER: transepithelial transport of digoxin (Digoxin: 30nM) in Caco-2 cells. Format: functional, cell-based. (Passage across Caco-2 layers is used to estimate intestinal permeability.)
ATP-dependent translocase ABCB1, sequence (P08183 whole entry): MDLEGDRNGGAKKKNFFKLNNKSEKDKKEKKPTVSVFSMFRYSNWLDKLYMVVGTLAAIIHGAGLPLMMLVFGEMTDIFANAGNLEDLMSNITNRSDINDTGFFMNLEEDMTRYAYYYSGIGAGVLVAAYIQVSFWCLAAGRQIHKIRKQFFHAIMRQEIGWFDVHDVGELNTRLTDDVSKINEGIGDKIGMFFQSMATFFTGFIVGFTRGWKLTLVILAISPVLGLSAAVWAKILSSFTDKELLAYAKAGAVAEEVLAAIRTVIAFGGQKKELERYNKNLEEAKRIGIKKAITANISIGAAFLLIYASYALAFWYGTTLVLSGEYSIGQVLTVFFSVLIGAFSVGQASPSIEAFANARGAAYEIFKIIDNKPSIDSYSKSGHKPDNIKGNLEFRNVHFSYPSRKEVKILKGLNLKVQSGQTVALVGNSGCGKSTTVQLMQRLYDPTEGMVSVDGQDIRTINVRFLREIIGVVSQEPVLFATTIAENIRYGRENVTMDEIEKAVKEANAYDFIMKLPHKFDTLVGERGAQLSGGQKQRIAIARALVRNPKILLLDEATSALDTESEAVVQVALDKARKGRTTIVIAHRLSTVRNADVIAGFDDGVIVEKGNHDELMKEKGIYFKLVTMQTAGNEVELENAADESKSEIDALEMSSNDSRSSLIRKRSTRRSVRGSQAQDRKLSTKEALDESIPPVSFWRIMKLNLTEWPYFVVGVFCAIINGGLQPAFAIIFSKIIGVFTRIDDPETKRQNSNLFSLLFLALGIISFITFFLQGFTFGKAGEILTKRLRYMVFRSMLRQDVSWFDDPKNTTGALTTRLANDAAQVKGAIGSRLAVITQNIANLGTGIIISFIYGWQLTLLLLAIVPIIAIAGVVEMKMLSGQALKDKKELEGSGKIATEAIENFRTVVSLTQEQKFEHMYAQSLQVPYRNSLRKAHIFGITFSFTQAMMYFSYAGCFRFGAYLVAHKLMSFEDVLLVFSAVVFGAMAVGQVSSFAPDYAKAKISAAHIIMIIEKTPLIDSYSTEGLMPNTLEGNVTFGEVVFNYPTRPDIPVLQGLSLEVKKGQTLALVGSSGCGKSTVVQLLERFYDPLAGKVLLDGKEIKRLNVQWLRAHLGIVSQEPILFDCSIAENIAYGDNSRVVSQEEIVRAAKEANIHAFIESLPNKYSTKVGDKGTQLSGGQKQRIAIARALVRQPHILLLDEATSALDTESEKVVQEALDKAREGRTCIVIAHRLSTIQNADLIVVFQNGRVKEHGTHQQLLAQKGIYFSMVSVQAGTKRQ

Take PUMMELO JUICE: the Activity entry is “inhibitor [+]”.
As for GRAPEFRUIT JUICE, the Activity result is “inhibitor [+]”.
